Reference: patent US20080145313A1, “Compositions and Methods for the Treatment and Prevention of Neoplastic Disorders” (Genesis Research & Development Corporation Limited, priority 2006, published 2008)

system: A549 cells; assay: Growth inhibition of siRNA-transfected A549 cells, SYBR Green I DNA content; assay type: cell-based, human; details: 10 nM siRNA; DNA content 96 hours after transfection
Protocol: A549 cells (human lung cancer cell line; ATCC No. CCL-185), SK-MeI-5 cells (human melanoma cell line; ATCC No. HTB-70), MCF-7 cells (human adenocarcinoma cell line; ATCC No. HTB-22), HCT-116 cells (colorectal carcinoma; ATCC CCL-247) and HCT-116 p53 null cells (derived from ATCC No. CCL-247; Bunz et al., Science 282:1497-1501, 1998) were cultured in RPMI 1640 medium with 10% v/v heat-inactivated fetal calf serum (FCS). Cells were seeded at a density of 5×10^4 cells/cm^2 in multi-well tissue culture plates. Sequences of Stealth™ siRNA duplexes (Invitrogen) targeting human ribonucleotide reductase subunit 1 (SEQ ID NO: 22) and subunit 2 (SEQ ID NO; 38) are given in SEQ ID NO: 4830-4832 (DNA), and SEQ ID NO: 5136-5138 (RNA) for RRM1, and SEQ ID NO: 5306-5308 (DNA), and SEQ ID NO: 5303-5305 (RNA) for RRM2. siRNAs were transfected at different concentrations into cells using Lipofectamine™ RNAiMAX transfection reagent (Invitrogen). Non-specific siRNA (SEQ ID NO: 4804 and 4805 (DNA), and SEQ ID NO: 5301 and 5302 (RNA)) were used as controls. The cellular DNA content was measured using a SYBR Green I-based fluorometric assay at 24, 48, 72 and 96 hours after transfection (120 hours for the MCF-7 cells), as follows. At the indicated time points following reverse transfection, cells were harvested and frozen at −80° C. overnight. Cells were thawed and cell lysis buffer (phosphate-buffered saline (PBS) containing 1% Triton X-100, pH 7) and SYBR Green I (1:10^5 V/V; Invitrogen) was added to the wells and incubated overnight in the dark at 4° C.
The following day, cell lysates were mixed thoroughly, and DNA fluorescence was measured with a Wallac Victor^2 plate reader (Turku, Finland) set at an excitation frequency of 485 nm and measuring emission at 535 nm.
To determine the duration of the knock-down effect of RRM1-targeting siRNA, A549 cells were reverse transfected with 1 or 10 nM RRM1-3 (SEQ ID NO: 4832 (DNA, and SEQ ID NO: 5138 (RNA)) or control siRNA (SEQ ID NO: 4804 (DNA), and SEQ ID NO: 5301 (RNA)), and growth followed over time. Growth inhibition was measured daily as described above for up to ten days. RRM1-3-mediated RRM1 silencing inhibited growth for at least 10 days post-transfection at both 1 and 10 nM (FIG. 11).
siRNA-mediated inhibition of cancer cell growth was determined in A549 cells as follows. A549 cells (human lung cancer cell line; ATCC No. CCL-185) were cultured in RPMI 1640 medium with 10% v/v heat-inactivated fetal calf serum. Cells were seeded at a density of 5×10^3 cells/cm^2 in multi-well tissue culture plates. Stealth™ siRNA duplexes (Invitrogen) targeting genes involved in cancer energy and metabolism pathways and listed in Table 9, were transfected at 10 nM into cells using Lipofectamine™ RNAiMAX transfection reagent (Invitrogen). Non-specific siRNA (SEQ ID NO: 4804 and 4805 (DNA), and SEQ ID NO: 5301 and 5302 (RNA)) were used as controls. The cellular DNA content was measured using a SYBR Green I-based fluorometric assay at 96 hours after transfection. The cells were harvested and frozen at −80° C. overnight. Cells were thawed and cell lysis buffer (phosphate-buffered saline (PBS) containing 1% Triton X-100, pH 7) and SYBR Green I (1:10^5 v/v; Invitrogen) was added to the wells and incubated overnight in the dark at 4° C. The following day, cell lysates were mixed thoroughly, and DNA fluorescence was measured with a Wallac Victor^2 plate reader (Turku, Finland) set at an excitation frequency of 485 nm and measuring emission at 535 nm.
Three different siRNAs were tested for each target gene. The average fluorescence units from three replicate wells, representing the amount of DNA per well, were used to determine the effect on growth inhibition. The results are given in Table 10 (energy and metabolism gene targets) and Table 11 (transporter gene targets).
siRNA-mediated RNAi was also determined on a panel of different cell lines. […]

Growth Inhibition in A549 cells, + (inhibits by at least 50%):
SEQ ID NO: 4999: siRNA targeting UMPS (chain 1 TGGAAACTGTTGAGGTTCTTCAGAA; chain 2 UGGAAACUGUUGAGGUUCUUCAGAA; chemistry not given here; one strand in two spellings)
SEQ ID NO: 4816: siRNA targeting LDHA/5 (chain 1 AAATATGTTCACGTTACGCTGGACC; chain 2 AAAUAUGUUCACGUUACGCUGGACC; chemistry not given here; one strand in two spellings)

Growth Inhibition in A549 cells, − (no growth inhibition with any siRNA):
SEQ ID NO: 4991: siRNA targeting TK1 (chain 1 GCACTGGATGGGACCTTCCAGAGGA; chain 2 GCACUGGAUGGGACCUUCCAGAGGA; chemistry not given here; one strand in two spellings)
SEQ ID NO: 4995: siRNA targeting DGUOK (chain 1 CCTCATGAGAGAGGTAAACACCTTT; chain 2 CCUCAUGAGAGAGGUAAACACCUUU; chemistry not given here; one strand in two spellings)
SEQ ID NO: 4874: siRNA targeting RRM2B (chain 1 TATCTGTGGTTTCTGCCATAACTGC; chain 2 UAUCUGUGGUUUCUGCCAUAACUGC; Both strands are one antisense strand in DNA/RNA notation, chemistry not given here, further chemistry not given here; one strand in two spellings)
SEQ ID NO: 4811: siRNA targeting H6PD (G6PDH) (chain 1 TTATGGAGACATGTCCCTGGAGCTC; chain 2 UUAUGGAGACAUGUCCCUGGAGCUC; chemistry not given here; one strand in two spellings)
SEQ ID NO: 4849: siRNA targeting COX5A (chain 1 CAATTCCCAGGCATCTATATCTGGC; chain 2 CAAUUCCCAGGCAUCUAUAUCUGGC; chemistry not given here; one strand in two spellings)
SEQ ID NO: 4873: siRNA targeting RRM2B (chain 1 TTTACTAAGTATTGGAACATCAGGC; chain 2 UUUACUAAGUAUUGGAACAUCAGGC; Both strands are one antisense strand in DNA/RNA notation, chemistry not given here, further chemistry not given here; one strand in two spellings)
SEQ ID NO: 4825: siRNA targeting CPS1 (chain 1 AATACCTTCACCAAAGCAAGCCACC; chain 2 AAUACCUUCACCAAAGCAAGCCACC; chemistry not given here; one strand in two spellings)
SEQ ID NO: 4998: siRNA targeting UMPS (chain 1 GAGTTGTGAAAGGCCTGCAAGAAGT; chain 2 GAGUUGUGAAAGGCCUGCAAGAAGU; chemistry not given here; one strand in two spellings)
SEQ ID NO: 4818: siRNA targeting PFKL (chain 1 AATGTCTGTCTTCATCTTCTCCGTC; chain 2 AAUGUCUGUCUUCAUCUUCUCCGUC; chemistry not given here; one strand in two spellings)
SEQ ID NO: 4852: siRNA targeting ATP5B (chain 1 AATCATTGCCTTCACGGGTCCTCTC; chain 2 AAUCAUUGCCUUCACGGGUCCUCUC; Both strands are one antisense strand in DNA/RNA notation, chemistry not given here, further chemistry not given here; one strand in two spellings)
SEQ ID NO: 5003: siRNA targeting DPYD (chain 1 GGCTACAAAGCTGCTTTCATTGGAA; chain 2 GGCUACAAAGCUGCUUUCAUUGGAA; chemistry not given here; one strand in two spellings)
SEQ ID NO: 4821: siRNA targeting PRPS1 (chain 1 AATTGTCATTGATTTCGCCACAACC; chain 2 AAUUGUCAUUGAUUUCGCCACAACC; chemistry not given here; one strand in two spellings)
SEQ ID NO: 4844: siRNA targeting NADSYN (chain 1 TTTCTATGCACCGAAACTGCCAAGG; chain 2 UUUCUAUGCACCGAAACUGCCAAGG; chemistry not given here; one strand in two spellings)
SEQ ID NO: 4841: siRNA targeting AK1 (chain 1 AAACTCTTCTCCTTGCTGCACCTCC; chain 2 AAACUCUUCUCCUUGCUGCACCUCC; chemistry not given here; one strand in two spellings)
SEQ ID NO: 4859: siRNA targeting ACLY (chain 1 TACAGATGAACTTGTAAAGGAGTTC; chain 2 UACAGAUGAACUUGUAAAGGAGUUC; Both strands are one antisense strand in DNA/RNA notation, chemistry not given here, further chemistry not given here; one strand in two spellings)

same assay, conditions: 10 nM siRNA; up to 120 hours post-transfection (FIG. 8)

Growth inhibition, A549, No inhibition of growth:
SEQ ID NO: 4873: siRNA targeting RRM2B (chain 1 TTTACTAAGTATTGGAACATCAGGC; chain 2 UUUACUAAGUAUUGGAACAUCAGGC; Both strands are one antisense strand in DNA/RNA notation, chemistry not given here, further chemistry not given here; one strand in two spellings)

same assay, conditions: A549 cells, 10 nM siRNA, DNA content 96 hours after transfection, transporter gene targets

Growth Inhibition in A549 cells by 10 nM siRNA, + (inhibits by at least 50%):
SEQ ID NO: 4951: siRNA targeting ATP6V1A (chain 1 AAATGGCTCCCATAATGCCAGGACC; chain 2 AAAUGGCUCCCAUAAUGCCAGGACC; chemistry not given here; one strand in two spellings)

Growth Inhibition in A549 cells by 10 nM siRNA, − (no growth inhibition):
SEQ ID NO: 4950: siRNA targeting ATP6V1A (chain 1 TTTCATGGAGGAAAGTTTATAGAGG; chain 2 UUUCAUGGAGGAAAGUUUAUAGAGG; chemistry not given here; one strand in two spellings)
SEQ ID NO: 4944: siRNA targeting ATP2B3 (PMCA3) (chain 1 AAAGCTTGTCTTCCGGGATCTGCTC; chain 2 AAAGCUUGUCUUCCGGGAUCUGCUC; chemistry not given here; one strand in two spellings)
